Assays:
[1] = test system: Enterococcus faecalis ATCC29212; assay: Antibiotic sensitivity assay (CFUs/ml), E. faecalis; assay type: cell-based; details: compound 25 μM; ciprofloxacin 6.5 μM
Description: (§1) Bacterial cultures were diluted to 10^5 cells/mL in LB broth (ATCC25922) or MH broth (ATCC27853, ATCC29212, ATCC29213). Antibiotics and/or phthalocyanines were added at indicated concentrations and the culture was incubated at 37° C. Samples were collected at 0, 24, 48, and 72 hours and plated on LB agar (ATCC25922) or tryptic soy blood agar (ATCC27853, ATCC29212, ATCC29213) to determine CFUs/ml.
(§2) To confirm that the activity of 4,4-Fe-PcTs was not specific to the gram-negative ATCC25922 E. coli, the ability of 4,4-Fe-PcTs to potentiate the activity of ciprofloxacin in another gram-negative (Pseudomonas aeruginosa ATCC27853) strain and two gram-positive (Staphylococcus aureus ATCC29213 and Enterococcus faecalis ATCC29212) strains was evaluated.

[2] = molecular target: T1, EcRecA (Escherichia coli, UniProt P0A7G6); details: compound 10 μM; poly-(dT)36-stimulated; relative to reaction without inhibitor
T1 sequence (P0A7G6 whole entry): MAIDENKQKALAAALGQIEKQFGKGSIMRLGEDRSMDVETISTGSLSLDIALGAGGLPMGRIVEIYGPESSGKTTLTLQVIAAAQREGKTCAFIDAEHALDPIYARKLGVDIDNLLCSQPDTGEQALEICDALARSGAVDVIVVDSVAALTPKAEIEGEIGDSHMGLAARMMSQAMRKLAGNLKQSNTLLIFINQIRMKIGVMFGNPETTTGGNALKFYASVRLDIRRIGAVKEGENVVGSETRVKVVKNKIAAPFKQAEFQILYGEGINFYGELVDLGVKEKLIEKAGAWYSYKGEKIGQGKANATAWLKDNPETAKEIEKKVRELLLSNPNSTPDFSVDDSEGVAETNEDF
Description: An ATPase assay [18] was used to screen a set of commercially available anionic, aromatic molecules for inhibitors of RecA ATPase activity. The release of inorganic phosphate by ATP hydrolysis was monitored using a Malachite Green phosphate assay [18]. The ssDNA-dependent ATPase reaction contained 1 μM EcRecA, 6 μM ssDNA (poly-(dT)36, concentration in nucleotides), 5 mM ATP, 50 mM Tris-Hepes buffer at pH 7.4, 10 mM MgCl2, 0.1% v/v 2-mercaptoethanol, and indicated amounts of 4,4-Fe-PcTs or 3,4-Cu-PcTs. Phosphate levels were measured by transferring 25 μl of ATPase reaction to 475 μl of malachite green phosphate assay, which contained 0.033% w/v Malachite Green, 1.3% w/v ammonium molybdate. 1.0 M HCl was used to monitor the release of inorganic phosphate by ATP hydrolysis [18]. The green complex formed between Malachite Green, molybdate, and free orthophosphate was measured by recording the absorbance at 620 nm.
Results are the average of two independent experiments where the deviation was less than 10%.

[3] = test system: mouse bone marrow cells; assay: Viability of mouse bone marrow cells; assay type: cell-based; details: maximum concentration tested (100 μM); 24 and 48 hours
Text: Error bars represent the standard deviation from three independent experiments.

[4] = test system: ATCC29522 cells; assay: Biofilm formation assay (crystal violet); assay type: cell-based, Escherichia coli; details: Fe-PcTs 25 μM; ciprofloxacin 40 nM; plastic surface, 96-well plate
Description: Biofilm formation on a plastic surface was analyzed using a 96-well plate (Falcon) as described previously. ATCC29522 cells were diluted in LB broth to 1×10^5 CFUs/ml. A 100 μl aliquot of cells was added to each well in the plate. Ciprofloxacin (CFX) was then added at a final concentration of 40 nM to each well and plates were incubated at 37° C. for 20 hours. Wells were aspirated and washed three times with 150 μl of PBS. Wells were stained with 120 μl of 0.1% crystal violet (Fisher) for 20 minutes. The crystal violet stain was aspirated and wells were washed three times with 150 μl of PBS. The plate was air-dried and the dye bound to adherent cells was resolubilized with 150 μl of 30% (v/v) glacial acetic acid (Fisher). The plate was incubated at room temperature for 20 minutes with shaking. The biofilm formation was quantified by measuring the OD600 nm using a plate reader.

[5] = molecular target: EcRecA / EcLexA (Escherichia coli, UniProt P0A7G6); details: in presence of ATPγS
Chain of EcRecA / EcLexA (P0A7G6 whole entry): as above
Description: The LexA cleavage reaction (10 μl) contained 1 μM poly-(dT)45, 2 μM EcRecA, 10 μM EcLexA, 0.1 mM ATP-γ-S, 20 mM MgAc2, 50 mM Hepes-Tris at pH 7.6 and indicated concentrations of 4,4-Fe-PcTs or 3,4-Cu-PcTs. The reaction was incubated for 120 minutes at 21° C. and stopped by the addition of 5 μl of loading buffer (30% glycerol, 10% SDS, 0.2 M Tris-HCl at pH 6.8, 0.1% v/v 2-mercaptoethanol and 0.1% w/v bromophenol blue). The products were resolved using a 13% SDS-polyacrylamide gel. The proteins were stained with Coomassie Blue-R250.

[6] = test system: E. coli ATCC25922; assay: Filamentation assay; assay type: cell-based, Escherichia coli; details: 4,4-Fe-PcTs 25 μM; CFX 40 nM; three hours
Description: Overnight cultures of E. coli ATCC25922 were grown in LB at 37° C. […] The cells were stained using the standard Gram staining technique and imaged using light microscopy at 100× magnification.

[7] = molecular target: T1, EcRecA; details: in presence of ATPγS
Description: EcRecA (5 μM) was incubated with indicated concentrations of 4,4-Fe-PcTs or 3,4-Cu-PcTs in strand exchange buffer (2 mM ATP-γ-S(Sigma-Aldrich), 10 mM MgAc2, 100 mM KAc, 50 mM Hepes-Tris buffer at pH 7.6, 0.1% v/v 2-mercaptoethanol) for 10 minutes at 37° C. FAM43 (0.35 μM) was added and the reaction was incubated for 2 minutes. The reaction was started by the addition of 0.35 μM of the dsDNA substrate (annealing product of equimolar oligonucleotides 45A and 55A). The reaction was stopped at 30 minutes by adding EDTA to a final concentration of 20 mM and trypsin to a final concentration of 1 μg/μl. After 10 minutes, 10 μl of the reaction was mixed with 5 μl of loading buffer (30% glycerol and 0.1% bromophenol blue) and products were resolved using a 20% native acrylamide gel. The fluorescence emission in the gel was recorded using a Kodak GelLogic 200 system.

[8] = molecular target: T1, EcRecA; details: gel shift; 0, 10, 100 μM
Description: EcRecA (4 μM), a 1.0-kb double-stranded DNA (dsDNA) PCR product (12 μM in base pairs), and indicated concentrations of 4,4-Fe-PcTs or 3,4-Cu-PcTs were incubated in binding buffer (5 mM MgAc2, 50 mM Tris-Hepes at pH 7.6) for 10 minutes at 37° C. EcRecA bound (slower migrating) and unbound dsDNA were resolved using a 1.0% agarose gel. The gel was stained with ethidium bromide and the fluorescence emission in the gel was recorded using a Kodak GelLogic 200 system.

[9] = test system: Staphylococcus aureus ATCC29213; assay: Antibiotic sensitivity assay (CFUs/ml), S. aureus; assay type: cell-based; details: compound 25 μM; ciprofloxacin 6.5 μM
Description: as §1, §2

## iron (III) phthalocyanine-4,4′,4″,4′″-tetrasulfonic acid [4,4-Fe-PcTs]
[1]
  potentiation of ciprofloxacin activity: potentiated the activity of ciprofloxacin
[2]
  inhibition of EcRecA ATPase activity: high degree of inhibition
[3]
  toxicity to mouse bone marrow: not toxic
[4]
  effect on ciprofloxacin-induced biofilm formation: reduced the ability of ciprofloxacin to induce
[5]
  inhibition of LexA cleavage: inhibited
[6]
  effect on ciprofloxacin-induced in vitro filamentation: reduced the ability of ciprofloxacin to induce
[7]
  inhibition of DNA strand-exchange: inhibited
[8]
  inhibition of RecA dsDNA-binding activity: in the micromolar range
[9]
  potentiation of ciprofloxacin activity: potentiated the activity of ciprofloxacin

— patent publication US9393250B2, “Phthalocyanine compounds useful as RecA inhibitors and methods of using same” (University of Saskatchewan, priority 2012, dated 2016)
